How the values were obtained:
[1] = test system: NOMO1; test: AUC of viability dose-response curve (% viability x log10 dose units); higher = less sensitive; conditions: 48 h
Summary of the method: (§1)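 Area under the curve was integrated by trapezoidal rule from a log-logistic fit of normalised viability, with curves exceeding full viability scaled and quality-control failures removed. The fit had four parameters over log10 doses. Viability came from CellTiter-Glo One luminescence, normalised per plate to DMSO and cell-free wells, after leukemia cells adapted to each medium (500 or 1000 cells/well, 1536-well plates) were exposed to library compounds in DMSO for 48 h at 37°C. The 11 threefold doses ran from 47 μM to 0.79 nM.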

[2] = test system: P12-Ichikawa; test: as above; conditions: 48 h
Summary of the method: as §1

[3] = test system: SEM cells; test: cell viability relative to DMSO control; higher = less cytotoxic; conditions: 48 h
Summary of the method: (§2)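 Viability is expressed as a percentage of DMSO wells within each plate, and cell-free wells serve as background. Seeding densities in the 1536-well plates (5 μl) were 500 cells/well for NOMO1 or SEM leukemia cells and 1000 cells/well for P12-Ichikawa. Each line was adapted for at least four passages in each medium. Library compounds in DMSO were pin-dosed at 47 μM to 0.79 nM (11 points, threefold), and CellTiter-Glo One luminescence was read after 48 h at 37°C.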

[4] = test system: SEM cells; test: AUC of viability dose-response curve (% viability x log10 dose units); higher = less sensitive; conditions: 48 h
Summary of the method: as §1

[5] = test system: P12-Ichikawa; test: cell viability relative to DMSO control; higher = less cytotoxic; conditions: 48 h
Summary of the method: as §2

[6] = test system: NOMO1; test: as above; conditions: RPMI 5 mM glucose + 10% FBS, 48 h
Summary of the method: as §2

O=C(OCC#CCSc1nnc(-c2cccc3ccccc23)o1)c1cc2ccccc2s1
AUC of viability dose-response curve
Conditions	HPLM + 10% dialyzed FBS	RPMI 5 mM glucose + 10% FBS	RPMI 5 mM glucose + 10% dialyzed FBS
[1]	431	443	455
[2]	451	444	468

[3], HPLM + 10% dialyzed FBS
Conditions	cell viability [%]
0.000781 µM	119
0.00234 µM	122
0.00702 µM	121
0.0211 µM	124
0.0632 µM	42.3
0.19 µM	132
0.569 µM	130
1.71 µM	115
5.12 µM	71.7
15.4 µM	128
46.1 µM	113

O=C(O)CC/C=C\CC[C@@H]1[C@@H](N2CCCCC2)[C@@H](O)C[C@@H]1OCc1ccc(-c2ccccc2)cc1
AUC of viability dose-response curve
Conditions	[1]	[2]	[4]
HPLM + 10% dialyzed FBS	433	461	461
RPMI 5 mM glucose + 10% FBS	441	457	456
RPMI 5 mM glucose + 10% dialyzed FBS	457	455	467

cell viability [%], HPLM + 10% dialyzed FBS
Conditions	[3]	[5]
0.000781 µM	117	124
0.00234 µM	131	131
0.00702 µM	117	125
0.0211 µM	136	126
0.0632 µM	129	116
0.19 µM	123	119
0.569 µM	127	131
1.71 µM	117	129
5.12 µM	111	107
15.4 µM	114	108
46.1 µM	112	109

Nc1ncnc2c1nc(Cl)n2[C@@H]1O[C@H](CO)[C@@H](O)[C@H]1O
Conditions	AUC of viability dose-response curve	cell viability [%]
[2], HPLM + 10% dialyzed FBS	454	–
[2], RPMI 5 mM glucose + 10% FBS	463	–
[2], RPMI 5 mM glucose + 10% dialyzed FBS	452	–
[4], HPLM + 10% dialyzed FBS	412	–
[4], RPMI 5 mM glucose + 10% FBS	419	–
[4], RPMI 5 mM glucose + 10% dialyzed FBS	406	–
[6], 0.000781 µM	–	116
[6], 0.00234 µM	–	123
[6], 0.00702 µM	–	110
[6], 0.0211 µM	–	120
[6], 0.0632 µM	–	120
[6], 0.19 µM	–	113
[6], 0.569 µM	–	106
[6], 1.71 µM	–	110
[6], 5.12 µM	–	118
[6], 15.4 µM	–	108
[6], 46.1 µM	–	14.5

cell viability [%]
Conditions	[3]	[5]
HPLM + 10% dialyzed FBS, 0.000781 µM	118	123
HPLM + 10% dialyzed FBS, 0.00234 µM	128	125
HPLM + 10% dialyzed FBS, 0.00702 µM	123	125
HPLM + 10% dialyzed FBS, 0.0211 µM	125	121
HPLM + 10% dialyzed FBS, 0.0632 µM	119	121
HPLM + 10% dialyzed FBS, 0.19 µM	128	122
HPLM + 10% dialyzed FBS, 0.569 µM	115	126
HPLM + 10% dialyzed FBS, 1.71 µM	128	125
HPLM + 10% dialyzed FBS, 5.12 µM	97.3	118
HPLM + 10% dialyzed FBS, 15.4 µM	41.6	103
HPLM + 10% dialyzed FBS, 46.1 µM	7.3	58.7
RPMI 5 mM glucose + 10% FBS, 0.000781 µM	120	–
RPMI 5 mM glucose + 10% FBS, 0.00234 µM	130	–
RPMI 5 mM glucose + 10% FBS, 0.00702 µM	123	–
RPMI 5 mM glucose + 10% FBS, 0.0211 µM	135	–
RPMI 5 mM glucose + 10% FBS, 0.0632 µM	136	–
RPMI 5 mM glucose + 10% FBS, 0.19 µM	135	–
RPMI 5 mM glucose + 10% FBS, 0.569 µM	119	–
RPMI 5 mM glucose + 10% FBS, 1.71 µM	130	–
RPMI 5 mM glucose + 10% FBS, 5.12 µM	109	–
RPMI 5 mM glucose + 10% FBS, 15.4 µM	55	–
RPMI 5 mM glucose + 10% FBS, 46.1 µM	8.37	–

C[C@H]1O[C@H]([C@H](O)[C@@H]1O)N2\C=C(F)/C(=O)NC2=O
AUC of viability dose-response curve
Conditions	[1]	[2]	[4]
HPLM + 10% dialyzed FBS	441	443	460
RPMI 5 mM glucose + 10% FBS	460	440	454
RPMI 5 mM glucose + 10% dialyzed FBS	444	442	436

C=C1C(=O)OC2/C=C(/C)CC/C=C(/C)CCC12 (centres undefined)
AUC of viability dose-response curve
Conditions	[1]	[2]	[4]
HPLM + 10% dialyzed FBS	444	454	455
RPMI 5 mM glucose + 10% FBS	463	442	449
RPMI 5 mM glucose + 10% dialyzed FBS	457	448	446

C[C@@H]1C[C@H]2[C@@H]3\C=C(C)/C4=C/C5=C(C[C@]4(C)[C@H]3[C@@H](O)C[C@]2(C)[C@@]1(O)C(=O)CO)C=N[N]5C6=CC=CC=C6
AUC of viability dose-response curve
Conditions	[1]	[2]	[4]
HPLM + 10% dialyzed FBS	425	308	296
RPMI 5 mM glucose + 10% FBS	446	280	300
RPMI 5 mM glucose + 10% dialyzed FBS	461	246	267

[3], HPLM + 10% dialyzed FBS
Conditions	cell viability [%]
0.000781 µM	143
0.00234 µM	123
0.00702 µM	112
0.0211 µM	109
0.0632 µM	101
0.19 µM	71.2
0.569 µM	66.9
1.71 µM	64.9
5.12 µM	72.3
15.4 µM	57.7
46.1 µM	36.4

COC(=O)N1CC2(CC2)C[C@H](C(=O)NO)[C@H]1C(=O)N1CCN(c2ccccc2)CC1
AUC of viability dose-response curve
Conditions	HPLM + 10% dialyzed FBS	RPMI 5 mM glucose + 10% FBS	RPMI 5 mM glucose + 10% dialyzed FBS
[1]	297	310	373
[2]	290	357	324

cell viability [%]
Conditions	[3]	[5]
HPLM + 10% dialyzed FBS, 0.000781 µM	110	122
HPLM + 10% dialyzed FBS, 0.00234 µM	128	133
HPLM + 10% dialyzed FBS, 0.00702 µM	123	119
HPLM + 10% dialyzed FBS, 0.0211 µM	116	125
HPLM + 10% dialyzed FBS, 0.0632 µM	128	117
HPLM + 10% dialyzed FBS, 0.19 µM	121	114
HPLM + 10% dialyzed FBS, 0.569 µM	113	24.5
HPLM + 10% dialyzed FBS, 1.71 µM	40.3	30.1
HPLM + 10% dialyzed FBS, 5.12 µM	19.8	16.7
HPLM + 10% dialyzed FBS, 15.4 µM	16.5	10.6
HPLM + 10% dialyzed FBS, 46.1 µM	6.78	7.08
RPMI 5 mM glucose + 10% FBS, 0.000781 µM	–	121
RPMI 5 mM glucose + 10% FBS, 0.00234 µM	–	132
RPMI 5 mM glucose + 10% FBS, 0.00702 µM	–	119
RPMI 5 mM glucose + 10% FBS, 0.0211 µM	–	129
RPMI 5 mM glucose + 10% FBS, 0.0632 µM	–	136
RPMI 5 mM glucose + 10% FBS, 0.19 µM	–	143
RPMI 5 mM glucose + 10% FBS, 0.569 µM	–	122
RPMI 5 mM glucose + 10% FBS, 1.71 µM	–	99.6
RPMI 5 mM glucose + 10% FBS, 5.12 µM	–	14.2
RPMI 5 mM glucose + 10% FBS, 15.4 µM	–	9.97
RPMI 5 mM glucose + 10% FBS, 46.1 µM	–	7.58

Clc1ccc(COC(Cn2ccnc2)c2ccc(Cl)cc2Cl)c(Cl)c1 (centres undefined)
AUC of viability dose-response curve
Conditions	[1]	[2]	[4]
HPLM + 10% dialyzed FBS	425	452	462
RPMI 5 mM glucose + 10% FBS	468	467	460
RPMI 5 mM glucose + 10% dialyzed FBS	452	419	449

[3], HPLM + 10% dialyzed FBS
Conditions	cell viability [%]
0.000781 µM	121
0.00234 µM	120
0.00702 µM	112
0.0211 µM	123
0.0632 µM	104
0.19 µM	115
0.569 µM	114
1.71 µM	124
5.12 µM	99.3
15.4 µM	109
46.1 µM	70

Cn1cc(-c2ccc(F)c(C(F)(F)F)c2)nc1C1CCN(c2ncnc3[nH]ncc23)CC1
AUC of viability dose-response curve
Conditions	[1]	[2]	[4]
HPLM + 10% dialyzed FBS	447	463	441
RPMI 5 mM glucose + 10% FBS	447	444	461
RPMI 5 mM glucose + 10% dialyzed FBS	435	446	449

Source: the supplement of paper PMC11451515
